Data from publication PMC7708037, “Targeting OGG1 arrests cancer cell proliferation by inducing replication stress” (Nucleic Acids Research, 2020).

Assays:
CD3+ T-cells = assay: CD3 flow cytometry assay (T-cell survival); format: cell-based; design: Survival of CD3+ T-cells (flow cytometry): dose or concentration left out as unconfirmed
Description: The experiment was performed on blood cells from 4 different healthy individuals, with three replicates each. Human peripheral blood mononuclear cells were isolated from fresh buffy coats obtained from healthy donors via the Karolinska Hospital, Stockholm, Sweden. For separation, Ficoll-Paque PLUS density medium (17144003, GE Healthcare) and SepMate separation tubes (85450, StemCell) were used, according to manufacturer's instructions. Briefly, buffy coat diluted 1:1 with PBS and layered on 15 ml of Ficoll-Paque PLUS in the SepMate tubes was spun down for 10 min at […]. The upper layer of the tube content was then poured into new falcon tubes and washed twice with PBS.
Cells were seeded out in round bottom 96-well plates (83.3925.500, Sarstedt) in RPMI Medium 1640 containing GlutaMAX™ (61870-010, ThermoFisher) supplemented with 10% human AB+ male heat inactivated clotted whole blood serum (H5667, Sigma-Aldrich) and 100 U/ml penicillin/streptomycin (15140122, Gibco). […] Only viable cells were counted, using a TC20™ automated cell counter (Bio-Rad) and Trypan blue (1450021, Bio-Rad). […]
10 000 events from an FSC-SSC gate set on the typical living lymphocyte population were collected and the data was compensated and analyzed using FlowJo 10.5.3. […] The number of CD3 positive, viable events was quantified and then divided by the number of Precision Count Beads™ collected per tube. […]

[1] = test system: HEK293T and HEK293T(KO) cells; assay: Colony area of HEK293T vs HEK293T(KO); format: cell-based, human; details: 8 days exposure
Source text: 250 HEK293T or HEK293T (KO) cells were counted and seeded in 6-well plates for 8 days in the presence or absence of TH5487 at indicated concentrations. Colonies were directly scanned after removing media and drying colonies. Area of HEK293T or HEK293T(KO) colonies was digitally colour contrasted and then analysed using ImageJ. […]
untreated parental HEK293T. Data are average ±SEM of 4 technical replicates from 2 independent experiments. F. Comparative analysis of the colony area (pixels) for HEK293T or HEK293T(KO) cells exposed for eight days to TH5487 or DMSO. Data are average ±SEM of 4 technical replicates from 2 independent experiments. Statistical significance was determined using Mann Witney test (**, P<0.01, ***, P<0.001 and ****, P<0.0001 , ns, non-significant).
Supplementary Fig. S6: 8 -oxodG levels and cell cycle distribution. A. 8-oxodG accumulation in A3 knockdown cells. The indicated shNT cells were treated with 250 ng/ml doxycycline for 0, 96, or 144 h, and the amount of genomic 8-oxodG was quantified with LC -MS/MS. […] Cells were treated with 10 µM TH5487 or an equivalent volume DMSO for the indicated times, and the cell cycle distribution was determined by flow cytometry. […] A3 shNT (grey), sh2 (blue), and sh3 (red), were treated with 250 ng/ml doxycycline for 48 –120 h, and the cell cycle distribution was determined with flow cytometry. […]

O=C(Nc1ccc(I)cc1)N1CCC(n2c(=O)[nH]c3c(Br)cccc32)CC1 [TH5487]
Survival of CD3+ T-cells (flow cytometry) (CD3+ T-cells; Dynabeads-activated, 6 days): well tolerated
Tolerance by primary T-cells (CD3+ T-cells; the same dose (10 μM), healthy donors): well tolerated
Colony area, HEK293T compared to HEK293T (KO) [1]: significantly reduced
